Reference: US20160244437A1, “SUBSTITUTED PHENYLALANINE DERIVATIVES” (BAYER PHARMA AKTIENGESELLSCHAFT, priority 2013, published 2016)
Counter-ions that a name gives are not always drawn.

What follows are compounds tested against T1, human factor XIa (Homo sapiens, UniProt P03951) (assay: Measurement of FXIa inhibition (fluorogenic peptide substrate Boc-Glu(OBzl)-Ala-Arg-AMC)). Conditions: factor XIa from Kordia 0.45 nM, 15 min pre-incubation, 30 min at 22° C., fluorescence.
T1 construct: purchased Kordia
Format: biochemical
Protocol: The factor XIa inhibition of the substances according to the invention is determined using a biochemical test system which utilizes the reaction of a peptidic factor XIa substrate to determine the enzymatic activity of human factor XIa. Here, factor XIa cleaves from the peptic factor XIa substrate the C-terminal aminomethylcoumarin (AMC), the fluorescence of which is measured. The determinations are carried out in microtitre plates.
Test substances are dissolved in dimethyl sulphoxide and serially diluted in dimethyl sulphoxide (3000 μM to 0.0078 μM; resulting final concentrations in the test: 50 μM to 0.00013 μM). In each case 1 μl of the diluted substance solutions is placed into the wells of white microtitre plates from Greiner (384 wells). Subsequently, the following are added successively: 20 μl of assay buffer (50 mmol/l Tris buffer pH 7.4; 100 mmol/l sodium chloride; 5 mmol/l calcium chloride; 0.1% bovine serum albumin) and 20 μl of factor XIa from Kordia (0.45 nM in assay buffer). After 15 min of incubation, the enzyme reaction is started by addition of 20 μl of the factor XIa substrate Boc-Glu(OBzl)-Ala-Arg-AMC dissolved in assay buffer (10 μM in assay buffer) from Bachem, the mixture is incubated at room temperature (22° C.) for 30 min and fluorescence is then measured (excitation: 360 nm, emission: 460 nm). The measured emissions of the test batches with test substance are compared to those of control batches without test substance (only dimethyl sulphoxide instead of test substance in dimethyl sulphoxide), and IC50 values are calculated from the concentration/activity relationships.

T1 sequence (P03951 388-625 limits assumed): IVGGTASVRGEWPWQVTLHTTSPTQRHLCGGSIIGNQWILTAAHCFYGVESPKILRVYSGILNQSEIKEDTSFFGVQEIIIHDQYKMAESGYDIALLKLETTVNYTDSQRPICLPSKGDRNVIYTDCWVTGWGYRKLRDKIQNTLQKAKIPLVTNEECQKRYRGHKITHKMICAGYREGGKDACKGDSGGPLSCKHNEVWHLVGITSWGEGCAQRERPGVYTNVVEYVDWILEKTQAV
T1 sequence (P03951 19-387 partner limits assumed): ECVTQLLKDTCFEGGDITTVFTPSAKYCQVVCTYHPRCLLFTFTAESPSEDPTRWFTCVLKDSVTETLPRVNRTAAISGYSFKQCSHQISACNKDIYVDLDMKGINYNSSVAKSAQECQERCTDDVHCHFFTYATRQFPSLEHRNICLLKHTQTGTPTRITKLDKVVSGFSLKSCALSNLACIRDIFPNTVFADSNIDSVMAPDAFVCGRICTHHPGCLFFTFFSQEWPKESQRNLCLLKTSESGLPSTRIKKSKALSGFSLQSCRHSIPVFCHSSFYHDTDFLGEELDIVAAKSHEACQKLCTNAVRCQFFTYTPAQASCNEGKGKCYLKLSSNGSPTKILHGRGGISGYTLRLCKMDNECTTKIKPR

Compound	IC50
Cc1ccc(S(=O)(=O)N2CCOCC2)cc1-c1cccc(C[C@H](NC(=O)[C@H]2CC[C@H](CN)CC2)C(=O)Nc2ccc(-c3nnn[nH]3)cc2)c1 [Example 3, trans-4-(Aminomethyl)-N-[(2S)-3-[2′-methyl-5′-(morpholin-4-ylsulphonyl)biphenyl-3-yl]-1-oxo-1-{[4-(1H-tetrazol-5-yl)phenyl]amino}propan-2-yl]cyclohexanecarboxamide hydrochloride]	0.9 nM
Cc1ccc(S(=O)(=O)N(C)C)cc1-c1cccc(C[C@H](NC(=O)[C@H]2CC[C@H](CN)CC2)C(=O)Nc2ccc(-c3noc(=O)[nH]3)cc2)c1 [Example 23, trans-4-(Aminomethyl)-N-[(2S)-3-[5′-(dimethylsulphamoyl)-2′-methylbiphenyl-3-yl]-1-oxo-1-{[4-(5-oxo-4,5-dihydro-1,2,4-oxadiazol-3-yl)phenyl]amino}propan-2-yl]cyclohexanecarboxamide hydrochloride]	3.6 nM
NC[C@H]1CC[C@H](C(=O)N[C@@H](Cc2cccc(-c3ccc(C(=O)N4CCOCC4)cc3)c2)C(=O)Nc2ccc(-c3nnc(Cl)[nH]3)cc2)CC1 [Example 26, trans-4-(Aminomethyl)-N-{(2S)-1-{[4-(3-chloro-4H-1,2,4-triazol-5-yl)phenyl]amino}-3-[4′-(morpholin-4-ylcarbonyl)biphenyl-3-yl]-1-oxopropan-2-yl}cyclohexanecarboxamide hydrochloride]	4.5 nM
Cc1ccc(C[C@H](NC(=O)[C@H]2CC[C@H](CN)CC2)C(=O)Nc2ccc(-c3nnn[nH]3)cc2)cc1-c1cccc(C(=O)NCCOCCOCCO)c1 [Example 28, 5′-[(2S)-2-({[trans-4-(Aminomethyl)cyclohexyl]carbonyl}amino)-3-oxo-3-{[4-(1H-tetrazol-5-yl)phenyl]amino}propyl]-N-{2-[2-(2-hydroxyethoxy)ethoxy]ethyl}-2′-methylbiphenyl-3-carboxamide hydrochloride]	5.2 nM
NCCNC(=O)c1ccc(-c2cccc(C[C@H](NC(=O)[C@H]3CC[C@H](CN)CC3)C(=O)Nc3ccc4cn[nH]c4c3)c2)cc1 [Example 50, N-(2-Aminoethyl)-3′-[(2S)-2-({[trans-4-(aminomethyl)cyclohexyl]carbonyl}amino)-3-(1H-indazol-6-ylamino)-3-oxopropyl]biphenyl-4-carboxamide hydrochloride]	55 nM

Second part, the compound after the results:

IC50	Compound
7.7 nM	Cc1cc(C(=O)NC2CCNCC2)ccc1-c1cccc(C[C@H](NC(=O)[C@H]2CC[C@H](CN)CC2)C(=O)Nc2ccc(-c3nnn[nH]3)cc2)c1 [Example 15, 3′-[(2S)-2-({[trans-4-(Aminomethyl)cyclohexyl]carbonyl}amino)-3-oxo-3-{[4-(1H-tetrazol-5-yl)phenyl]amino}propyl]-2-methyl-N-(piperidin-4-yl)biphenyl-4-carboxamide hydrochloride]
4.4 nM	Cc1cc(C(=O)NCCOCCOCCO)ccc1-c1cccc(C[C@H](NC(=O)[C@H]2CC[C@H](CN)CC2)C(=O)Nc2ccc(-c3nnn[nH]3)cc2)c1 [Example 25, 3′-[(2S)-2-({[trans-4-(Aminomethyl)cyclohexyl]carbonyl}amino)-3-oxo-3-{[4-(1H-tetrazol-5-yl)phenyl]amino}propyl]-N-{2-[2-(2-hydroxyethoxy)ethoxy]ethyl}-2-methylbiphenyl-4-carboxamide hydrochloride]
10 nM	Cc1ccc(C[C@H](NC(=O)C2CCC(CN)CC2)C(=O)Nc2ccc(-c3nnn[nH]3)cc2)cc1-c1cccc(C(=O)NC2C3CNCC32)c1 (stereo partly drawn) [Example 35, 5′-[(2S)-2-({[trans-4-(Aminomethyl)cyclohexyl]carbonyl}amino)-3-oxo-3-{[4-(1H-tetrazol-5-yl)phenyl]amino}propyl]-N-(3-azabicyclo[3.1.0]hex-6-yl)-2′-methylbiphenyl-3-carboxamide hydrochloride]
